Experimental data from the CheMixHub viscosity set.

Assay: xn = mol fraction of the nth substance listed

COCCOC + CCCCCCCCO
298.15 K, 101 kPa
Conditions	viscosity [mPa·s]
x1 = 0.1384	4.222
x1 = 0.2654	2.824
x1 = 0.3825	1.922
x1 = 0.4907	1.402
x1 = 0.591	1.089
x1 = 0.6843	0.8523
x1 = 0.7713	0.6745
x1 = 0.8525	0.5661
x1 = 0.9286	0.4789

COCCOC + CCCO
viscosity [mPa·s]
Conditions	298.15 K	308.15 K
101 kPa, x1 = 0.0072	1.874	1.467
101 kPa, x1 = 0.01	1.864	1.448
101 kPa, x1 = 0.0347	1.697	1.336
101 kPa, x1 = 0.0524	1.598	1.274
101 kPa, x1 = 0.06899	1.588	–
101 kPa, x1 = 0.0834	1.443	1.16
101 kPa, x1 = 0.1171	1.304	1.055
101 kPa, x1 = 0.1378	1.223	1.008
101 kPa, x1 = 0.1429	1.264	–
101 kPa, x1 = 0.1976	1.05	0.902
101 kPa, x1 = 0.2223	1.056	–
101 kPa, x1 = 0.2436	0.946	0.816
101 kPa, x1 = 0.2925	0.879	0.741
101 kPa, x1 = 0.3078	0.8591	–
101 kPa, x1 = 0.3507	0.807	0.682
101 kPa, x1 = 0.4001	0.7303	–
101 kPa, x1 = 0.4082	0.747	0.645
101 kPa, x1 = 0.4355	0.695	0.622
101 kPa, x1 = 0.4665	0.684	0.601
101 kPa, x1 = 0.5001	0.6269	–
101 kPa, x1 = 0.5064	0.635	0.579
101 kPa, x1 = 0.5539	0.604	0.557
101 kPa, x1 = 0.605	0.573	0.533
101 kPa, x1 = 0.6088	0.5528	–
101 kPa, x1 = 0.6728	0.54	0.508
101 kPa, x1 = 0.7247	0.519	0.495
101 kPa, x1 = 0.7273	0.4945	–
101 kPa, x1 = 0.7669	0.503	0.483
101 kPa, x1 = 0.8206	0.488	0.475
101 kPa, x1 = 0.8572	0.4482	–
101 kPa, x1 = 0.8747	0.473	0.479
101 kPa, x1 = 0.9605	0.461	0.45
101 kPa, x2 = 0.0061	0.452	0.448
101.33 kPa, x1 = 0.0095	1.881	–
101.33 kPa, x1 = 0.0215	1.798	–
101.33 kPa, x1 = 0.0405	1.678	–
101.33 kPa, x1 = 0.0628	1.552	–
101.33 kPa, x1 = 0.0941	1.397	–
101.33 kPa, x1 = 0.1096	1.329	–
101.33 kPa, x1 = 0.1355	1.228	–
101.33 kPa, x1 = 0.1741	1.109	–
101.33 kPa, x1 = 0.2034	1.024	–
101.33 kPa, x1 = 0.2436	0.942	–
101.33 kPa, x1 = 0.2926	0.842	–
101.33 kPa, x1 = 0.3474	0.764	–
101.33 kPa, x1 = 0.3848	0.722	–
101.33 kPa, x1 = 0.4255	0.678	–
101.33 kPa, x1 = 0.4764	0.636	–
101.33 kPa, x1 = 0.5241	0.6	–
101.33 kPa, x1 = 0.57	0.572	–
101.33 kPa, x1 = 0.6239	0.536	–
101.33 kPa, x1 = 0.6795	0.509	–
101.33 kPa, x1 = 0.7142	0.495	–
101.33 kPa, x1 = 0.7632	0.476	–
101.33 kPa, x1 = 0.8198	0.459	–
101.33 kPa, x1 = 0.8625	0.447	–
101.33 kPa, x1 = 0.9004	0.439	–
101.33 kPa, x1 = 0.9269	0.435	–
101.33 kPa, x1 = 0.959	0.427	–
101.33 kPa, x2 = 0.0158	0.424	–

COc1ccccc1N + CCC(C)=O
viscosity [mPa·s], 100 kPa
Conditions	x1 = 0.0814	x1 = 0.1724	x1 = 0.2543	x1 = 0.3412	x1 = 0.4394	x1 = 0.5191	x1 = 0.6354	x1 = 0.7587	x1 = 0.8677
303.15 K	0.785	1.225	1.615	2.024	2.477	2.84	3.362	3.906	4.373
308.15 K	0.727	1.145	1.51	1.888	2.31	2.648	3.136	3.642	4.073
313.15 K	0.669	1.064	1.403	1.751	2.142	2.455	2.907	3.376	3.77

COc1ccccc1N + CCOCCO
303.15 K, 101 kPa
Conditions	viscosity [mPa·s]
x1 = 0.0875	2.2
x1 = 0.1775	2.547
x1 = 0.2701	2.908
x1 = 0.3653	3.268
x1 = 0.4633	3.603
x1 = 0.5643	3.917
x1 = 0.6683	4.18
x1 = 0.7755	4.436
x1 = 0.886	4.681

COC(C)=O + CCCCCCCCO
viscosity [mPa·s], 101 kPa
Conditions	x2 = 0.053	x2 = 0.1119	x2 = 0.1776	x2 = 0.2515	x2 = 0.3351	x2 = 0.4305	x2 = 0.5404	x2 = 0.6684	x2 = 0.8194
298.15 K	0.436	0.505	0.601	0.736	0.932	1.232	1.722	2.573	4.177
303.15 K	0.414	0.478	0.564	0.685	0.86	1.126	1.554	2.288	3.646
308.15 K	0.395	0.454	0.532	0.64	0.795	1.029	1.402	2.03	3.174
313.15 K	0.374	0.429	0.5	0.596	0.734	0.941	1.267	1.808	2.773

CCC(C)=O + CS(C)=O
viscosity [mPa·s], 101.3 kPa
Conditions	298.15 K	308.15 K	318.15 K
x1 = 0.054	1.762	1.448	1.23
x1 = 0.107	1.615	1.335	1.142
x1 = 0.213	1.372	1.138	0.982
x1 = 0.317	1.162	0.979	0.852
x1 = 0.419	0.988	0.83	0.734
x1 = 0.52	0.835	0.712	0.639
x1 = 0.619	0.717	0.621	0.561
x1 = 0.716	0.627	0.547	0.496
x1 = 0.812	0.54	0.473	0.436
x1 = 0.907	0.462	0.407	0.383
x1 = 0.954	0.438	0.379	0.361

CCC(C)=O + CC(C)=O
viscosity [mPa·s], 101 kPa
Conditions	x1 = 0.2	x1 = 0.4	x1 = 0.6	x1 = 0.8
293.15 K	0.334	0.35	0.365	0.381
313.15 K	0.278	0.29	0.302	0.314
